Reference: patent US8927717B1, “Thiochromeno[2,3-c]quinolin-12-one derivatives, preparation method and application thereof” (National Defense Medical Center, priority 2014, dated 2015)

Experiments:
Type in all cases: cell-based
PC-3 = details: Prostate cancer; 10^−5 molar; 48 hours; SRB
HL-60(TB) = details: Leukemia; 10^−5 molar; 48 hours; SRB
CCRF-CEM = details: Leukemia; 10^−5 molar; 48 hours; SRB
60 cancer cell lines = assay: NCI 60-cell screen, SRB, whole panel (mean, delta, range); details: 10^−5 molar, 48 hours, SRB; for Growth percent, Delta: delta over the cell panel; for Growth percent, Mean: mean over the cell panel; for Growth percent, Range: range over the cell panel
RPMI-8226 = details: Leukemia; 10^−5 molar; 48 hours; SRB
RXF 393 = details: Renal cancer; 10^−5 molar; 48 hours; SRB
SK-MEL-5 = details: Melanoma; 10^−5 molar; 48 hours; SRB
NCI-H460 = details: Non-small cell lung cancer; 10^−5 molar; 48 hours; SRB
K-562 = details: Leukemia; 10^−5 molar; 48 hours; SRB
HT29 = details: Colon cancer; 10^−5 molar; 48 hours; SRB
HOP-62 = details: Non-small cell lung cancer; 10^−5 molar; 48 hours; SRB
A549/ATCC = details: Non-small cell lung cancer; 10^−5 molar; 48 hours; SRB
SK-OV-3 = details: Ovarian cancer; 10^−5 molar; 48 hours; SRB
NCI-H23 = details: Non-small cell lung cancer; 10^−5 molar; 48 hours; SRB
OVCAR-8 = details: Ovarian cancer; 10^−5 molar; 48 hours; SRB
UO-31 = details: Renal cancer; 10^−5 molar; 48 hours; SRB
NCI-H226 = details: Non-small cell lung cancer; 10^−5 molar; 48 hours; SRB
SK-MEL-28 = details: Melanoma; 10^−5 molar; 48 hours; SRB
SNB-75 = details: CNS cancer; 10^−5 molar; 48 hours; SRB
MOLT-4 = details: Leukemia; 10^−5 molar; 48 hours; SRB
SF-268 = details: CNS cancer; 10^−5 molar; 48 hours; SRB
SNB-19 = details: CNS cancer; 10^−5 molar; 48 hours; SRB
DU-145 = details: Prostate cancer; 10^−5 molar; 48 hours; SRB
TK-10 = details: Renal cancer; 10^−5 molar; 48 hours; SRB
U251 = details: CNS cancer; 10^−5 molar; 48 hours; SRB
UACC-62 = details: Melanoma; 10^−5 molar; 48 hours; SRB
KM12 = assay: cells; details: Colon cancer; 10^−5 molar; 48 hours; SRB
786-0 = details: Renal cancer; 10^−5 molar; 48 hours; SRB
HS 578T = details: Breast cancer; 10^−5 molar; 48 hours; SRB
MCF7 = details: Breast cancer; 10^−5 molar; 48 hours; SRB
MDA-MB-435 = details: Melanoma; 10^−5 molar; 48 hours; SRB
COLO 205 = details: Colon cancer; 10^−5 molar; 48 hours; SRB
MALME-3M = details: Melanoma; 10^−5 molar; 48 hours; SRB
OVCAR-5 = details: Ovarian cancer; 10^−5 molar; 48 hours; SRB
LOX IMVI = details: Melanoma; 10^−5 molar; 48 hours; SRB
BT-549 = details: Breast cancer; 10^−5 molar; 48 hours; SRB
A498 = details: Renal cancer; 10^−5 molar; 48 hours; SRB
MDA-MB-231/ATCC = details: Breast cancer; 10^−5 molar; 48 hours; SRB
NCI-H522 = details: Non-small cell lung cancer; 10^−5 molar; 48 hours; SRB

SMILES: O=c1c2cc(Cl)ccc2sc2c(NCCO)nc3ccccc3c12 [Compound N9, 10-Chloro-6-(2-ethanolamino)-12H-thiochromeno[2,3-c]quinolin-12-one]
- Growth percent PC-3 (PC-3): 71.70%
- Growth percent HL-60(TB) (HL-60(TB)): 104.58%
- Growth percent CCRF-CEM (CCRF-CEM): 81.07%
- Growth percent, Delta (60 cancer cell lines): 56.67%
- Growth percent, Mean (60 cancer cell lines): 86.33%
- Growth percent, Range (60 cancer cell lines): 101.96%
- Growth percent RPMI-8226 (RPMI-8226): 83.81%
- Growth percent RXF 393 (RXF 393): 92.81%
- Growth percent SK-MEL-5 (SK-MEL-5): 97.36%
- Growth percent NCI-H460 (NCI-H460): 100.97%
- Growth percent K-562 (K-562): 68.23%
- Growth percent HT29 (HT29): 87.36%
- Growth percent HOP-62 (HOP-62): 81.90%
- Growth percent A549/ATCC (A549/ATCC): 80.72%
- Growth percent SK-OV-3 (SK-OV-3): 104.57%
- Growth percent NCI-H23 (NCI-H23): 86.06%
- Growth percent OVCAR-8 (OVCAR-8): 78.13%
- Growth percent UO-31 (UO-31): 51.97%
- Growth percent NCI-H226 (NCI-H226): 83.55%
- Growth percent SK-MEL-28 (SK-MEL-28): 100.76%
- Growth percent SNB-75 (SNB-75): 90.05%
- Growth percent MOLT-4 (MOLT-4): 78.76%
- Growth percent SF-268 (SF-268): 95.06%
- Growth percent SNB-19 (SNB-19): 90.96%
- Growth percent DU-145 (DU-145): 102.77%
- Growth percent TK-10 (TK-10): 78.14%
- Growth percent U251 (U251): 84.10%
- Growth percent UACC-62 (UACC-62): 76.52%
- Growth percent KM12 (KM12): 91.93%
- Growth percent 786-0 (786-0): 104.43%
- Growth percent HS 578T (HS 578T): 83.24%
- Growth percent MCF7 (Table 2: MCF) (MCF7): 29.66%
- Growth percent MDA-MB-435 (MDA-MB-435): 94.98%
- Growth percent COLO 205 (COLO 205): 99.13%
- Growth percent MALME-3M (MALME-3M): 104.86%
- Growth percent OVCAR-5 (OVCAR-5): 101.56%
- Growth percent LOX IMVI (LOX IMVI): 86.96%
- Growth percent BT-549 (BT-549): 131.62%
- Growth percent A498 (A498): 65.78%
- Growth percent MDA-MB-231/ATCC (MDA-MB-231/ATCC): 66.62%
- Growth percent NCI-H522 (NCI-H522): 76.94%

SMILES: CC(C)CC(C)Nc1nc2ccccc2c2c(=O)c3cc(Cl)ccc3sc12 (stereo not shown) [Compound N13, 10-Chloro-6-((4-methylpentan-2-yl)amino)-12H-thiochromeno[2,3-c]quinolin-12-one]
- Growth percent PC-3 (PC-3): 86.33%
- Growth percent HL-60(TB) (HL-60(TB)): 103.96%
- Growth percent CCRF-CEM (CCRF-CEM): 98.57%
- Growth percent, Delta (60 cancer cell lines): 22.57%
- Growth percent, Mean (60 cancer cell lines): 96.33%
- Growth percent, Range (60 cancer cell lines): 49.47%
- Growth percent RPMI-8226 (RPMI-8226): 97.78%
- Growth percent RXF 393 (RXF 393): 98.67%
- Growth percent SK-MEL-5 (SK-MEL-5): 90.71%
- Growth percent NCI-H460 (NCI-H460): 95.17%
- Growth percent K-562 (K-562): 106.64%
- Growth percent HT29 (HT29): 121.02%
- Growth percent HOP-62 (HOP-62): 88.69%
- Growth percent A549/ATCC (A549/ATCC): 101.98%
- Growth percent SK-OV-3 (SK-OV-3): 86.70%
- Growth percent NCI-H23 (NCI-H23): 95.10%
- Growth percent OVCAR-8 (OVCAR-8): 92.79%
- Growth percent UO-31 (UO-31): 78.64%
- Growth percent NCI-H226 (NCI-H226): 87.55%
- Growth percent SK-MEL-28 (SK-MEL-28): 106.87%
- Growth percent SNB-75 (SNB-75): 85.02%
- Growth percent MOLT-4 (MOLT-4): 93.68%
- Growth percent SF-268 (SF-268): 105.52%
- Growth percent SNB-19 (SNB-19): 106.79%
- Growth percent DU-145 (DU-145): 113.48%
- Growth percent TK-10 (TK-10): 123.23%
- Growth percent U251 (U251): 105.12%
- Growth percent UACC-62 (UACC-62): 96.09%
- Growth percent KM12 (KM12): 105.66%
- Growth percent 786-0 (786-0): 99.74%
- Growth percent HS 578T (HS 578T): 89.33%
- Growth percent MCF7 (Table 2: MCF) (MCF7): 73.82%
- Growth percent MDA-MB-435 (MDA-MB-435): 108.08%
- Growth percent COLO 205 (COLO 205): 93.45%
- Growth percent MALME-3M (MALME-3M): 95.93%
- Growth percent OVCAR-5 (OVCAR-5): 101.36%
- Growth percent LOX IMVI (LOX IMVI): 98.90%
- Growth percent BT-549 (BT-549): 103.61%
- Growth percent A498 (A498): 75.01%
- Growth percent MDA-MB-231/ATCC (MDA-MB-231/ATCC): 84.22%
- Growth percent NCI-H522 (NCI-H522): 102.30%
